How the values were obtained:
[1] = Acute toxicity, oral administration to mice, LD50 (method of Litchfield and Wilcoxon); type: in vivo; settings: mouse, in vivo; for LD50 at 336 h: checked 2 weeks later; for LD50 at 504 h: checked 3 weeks later; for LD50 at 72 h: checked 3 days later; for LD50 at 168 h: checked one week later, read-out: LD50, 1 Week
Source text: (§1) The compound of this invention is orally administered to mice, and the mice are checked 3 days, one week, 2 weeks and 3 weeks later for motality in terms of LD50 calculated according to the method of Litchfield and Wilcoxon.

Ehrlich carcinoma = test: Anti-tumor effect, Ehrlich carcinoma subcutaneously transplanted in mouse; type: in vivo; settings: oral, once daily for 7 days, tumor weighed on 10th day
Description: (§2) Cells of Ehrlich carcinoma or sarcoma 180, 5 × 10^6 in number, are subcutaneously transplanted in a mouse. Twenty-four hours after the transplantation and during a subsequent period, the compound of this invention is orally given to the test animal once every day for 7 consecutive days. On the 10th day from the transplantation, the weight of tumor in the test animal is measured to determine the percentage of inhibition achieved by the compound relative to the weight of tumor in the control group.

sarcoma 180 = test: Anti-tumor effect, sarcoma 180 subcutaneously transplanted in mouse; type: in vivo; settings: oral, once daily for 7 days, tumor weighed on 10th day
Description: as §2

mice = test: Acute toxicity, oral administration to mice, LD50 (method of Litchfield and Wilcoxon); type: in vivo
Source text: as §1

transplanted tumors = settings: literature; cited from earlier work
[2] = continued administration, clinical; cited from earlier work

Compound	LD50 at 336 h [1] [mg/kg]	LD50 at 504 h [1] [mg/kg]	LD50 at 72 h [1] [mg/kg]	LD50 at 168 h [1] [mg/kg]	Inhibition percentage, Ehrlich carcinoma (tumor weight relative to control) (Ehrlich carcinoma; 90 mg/kg/day) [%]	Inhibition percentage, sarcoma 180 (tumor weight relative to control) (sarcoma 180; 90 mg/kg/day) [%]	LD50, 2 Weeks (mice; checked 2 weeks later, 20160 min) [mg/kg]	LD50, 1 Week (mice; checked one week later, 10080 min) [mg/kg]	Inhibition percentage, Ehrlich carcinoma (tumor weight relative to control) (Ehrlich carcinoma; 30 mg/kg/day) [%]	Inhibition percentage, sarcoma 180 (tumor weight relative to control) (sarcoma 180; 30 mg/kg/day) [%]	inhibition of transplanted tumors (transplanted tumors)	side effects [2]
CCCCOc1ncc(F)c(=O)[nH]1 [2-n-Butoxy-5-fluoropyrimidin-4-one, 2-n-butoxy-5-fluoropyrimidin-4-one]	945	945	945	945	64	62	–	–	–	–	–	–
O=c1[nH]c(OCc2ccccc2)ncc1F [2-Benzyloxy-5-fluoropyrimidin-4-one, 2-benzyloxy-5-fluoropyrimidin-4-one]	894	894	894	894	52	70	–	–	–	–	–	–
O=c1[nH]cc(F)c(=O)[nH]1 [5-Fluorouracil, 5-fluorouracil, reference compound]	–	–	–	–	–	–	145	200	61	64	found to inhibit transplanted tumors	loss of appetite, stomatitis, nausea, vomiting and like gastrointestinal disorders, leukopenia, thrombocytopenia and like disorders in the blood, disorders in the liver and kidney
